In US10668052B2, “Combinations of isomers of dihydrotetrabenazine” (ADEPTIO PHARMACEUTICALS LIMITED, priority 2017, dated 2020):
Entries after “also recorded” stand apart in the source; their conditions may differ. Where two headings read alike, the source gives them in different places.

Legend:
[1] = Pharmacokinetic study of tetrabenazine and dihydrotetrabenazine metabolites in plasma after oral tetrabenazine 25 mg tablets; type: in vivo, human; details: for metabolite of tetrabenazine in humans (major/minor): after administration of tetrabenazine; for Cmax / AUC / Tmax / AUC(0-t) / AUC(0-inf) / half-life: human, plasma; for AUC: read-out: area under the curve (AUC); for Tmax: N=08, healthy adult male volunteers; for AUC(0-t): po; for Kel: unit inferred
Protocol: A pharmacokinetic study was carried out in healthy adult male volunteers under fasting conditions at a dose of single and multiple oral administration of 25 mg tablets once a day to ascertain the plasma levels of +/−α and +/−β dihydrotetrabenazine.
Table 1 summarises the pharmacokinetic data obtained following single-dose oral administration of tetrabenazine at a dose level of 25 mg (fasting, N=08).
Table 2 summarises the pharmacokinetic data obtained following multiple-dose oral administration of tetrabenazine at a dose level of 25 mg (fasting, N=07).

[2] = tested on: amphetamine induced locomotor activity in male CD rats; details: for total distance travelled: normalised
Protocol: Male CD (Charles River Laboratories, Germany) at weight range of 200-250 g (165-200 g upon arrival) were used for the experiments. Animals were housed at a standard temperature (22±1° C.) and in a light-controlled environment (lights on from 7 am to 8 pm) with ad libitum access to food and water.
The locomotor activity of the rats was tested in an open field arena. The open field test was performed during the rat light cycle and under a normal lighting evenly distributed to the test chambers. The paths of the rats were recorded by activity monitor (Med. Associates Inc.).
The rats were placed in the centre of the arena, and the path was recorded for 30 minutes. After 30 minutes of testing, vehicle or amphetamine was dosed and the rat was placed in the centre of the arena, and the path was recorded for 60 minutes, the total testing time being 90 minutes.

[3] = target: Chromaffin Granule Monoamine Transporter (Bos taurus, UniProt Q27963); details: racemic isomers, in vitro; cited from earlier work
[4] = oral, 25 mg, single dose study, tetrabenazine to adult male humans
[5] = single-dose oral tetrabenazine 25 mg, fasting
[6] = male, 25 mg, multiple-dose oral tetrabenazine 25 mg once a day, fasting, N=07
[7] = male, 25 mg, single-dose oral tetrabenazine 25 mg, fasting, N=08
[8] = male, single-dose oral tetrabenazine 25 mg, fasting, N=08
[9] = multiple-dose oral tetrabenazine 25 mg once a day, fasting, N=07
[10] = single-dose oral tetrabenazine 25 mg, fasting, N=08
[11] = Study 4, 1 mg/kg, compared to vehicle-amphetamine group
[12] = Study 6, each isomer 1 mg/kg, risperidone 1 mg/kg, compared to vehicle-amphetamine group, unnormalised

Sequence of Chromaffin Granule Monoamine Transporter (Q27963 whole entry): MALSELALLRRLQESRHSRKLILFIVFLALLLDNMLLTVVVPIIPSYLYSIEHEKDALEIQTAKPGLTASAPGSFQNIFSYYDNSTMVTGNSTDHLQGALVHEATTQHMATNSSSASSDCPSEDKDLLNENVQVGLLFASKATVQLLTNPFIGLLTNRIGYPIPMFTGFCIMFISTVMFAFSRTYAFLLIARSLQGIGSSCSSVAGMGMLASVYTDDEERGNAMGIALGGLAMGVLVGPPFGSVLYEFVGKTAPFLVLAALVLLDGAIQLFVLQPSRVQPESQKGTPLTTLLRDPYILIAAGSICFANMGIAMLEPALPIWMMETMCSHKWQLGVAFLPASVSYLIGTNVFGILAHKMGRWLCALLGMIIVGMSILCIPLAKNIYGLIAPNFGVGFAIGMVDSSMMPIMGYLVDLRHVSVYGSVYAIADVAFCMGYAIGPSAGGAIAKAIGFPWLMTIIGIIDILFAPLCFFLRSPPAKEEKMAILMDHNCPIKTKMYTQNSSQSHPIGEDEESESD

COc1cc2c(cc1OC)[C@H]1C[C@@H](O)[C@H](CC(C)C)CN1CC2 [(+)-α-DHTBZ, (2R,3R,11bR)-3-isobutyl-9,10-dimethoxy-1,3,4,6,7,11b-hexahydro-2H-pyrido[2,1,a]isoquinolin-2-ol]
metabolite of tetrabenazine in humans (major/minor) [1]: minor metabolites
Cmax [1, 4]: 2.61 ng/mL
AUC [1, 4]: 7.98 ng·h/mL
Tmax [1, 5]: 1.16 h
AUC(0-t) [1, 6]: 13.7 ng·h/mL
AUC(0-t) [1, 7]: 7.98 ng·h/mL
AUC(0-inf) [1, 8]: 10.8 ng·h/mL
Cmax [1, 8]: 2.61 ng/mL
half-life [1, 8]: 4.79 h
Cmaxss [1, 9]: 3.31 ng/mL
Cminss [1, 9]: 0.00 ng/mL
Ctss [1, 9]: 0.44 ng/mL
Tmaxss Mean [1, 9]: 97.18 h
Extrapolated AUC [1, 10]: 32.10%
Kel [1, 10]: 0.17 h⁻¹

COc1cc2c(cc1OC)[C@H]1C[C@H](O)[C@H](CC(C)C)CN1CC2 [(+)-β-DHTBZ, (2S,3R,11bR)-3-isobutyl-9,10-dimethoxy-1,3,4,6,7,11b-hexahydro-2H-pyrido[2,1,a]isoquinolin-2-ol]
metabolite of tetrabenazine in humans (major/minor) ([1]; listed as (+)-β-dihydrotetrabenazine): major metabolites; also recorded: main metabolites
Cmax [1, 4]: 103 ng/mL
AUC [1, 4]: 376 ng·h/mL
Tmax [1, 5]: 1.12 h
AUC(0-t) [1, 6]: 599 ng·h/mL
AUC(0-t) [1, 7]: 376 ng·h/mL
AUC(0-inf) [1, 8]: 410 ng·h/mL
Cmax [1, 8]: 103 ng/mL
half-life [1, 8]: 5.8 h
Cmaxss [1, 9]: 144.76 ng/mL
Cminss [1, 9]: 5.45 ng/mL
Ctss [1, 9]: 5.54 ng/mL
Tmaxss Mean [1, 9]: 97.11 h
Extrapolated AUC [1, 10]: 5.03%
Kel [1, 10]: 0.13 h⁻¹

Cc1nc2n(c(=O)c1CCN1CCC(c3noc4cc(F)ccc34)CC1)CCCC2 [risperidone, reference compound]
total distance travelled ([2]; Study 1, 1 mg/kg, compared to vehicle-amphetamine group): significantly different
locomotor activity [2, 11]: lower locomotor activity
stereotypic behaviour [2, 11]: reduced stereotypic behaviour
total distance travelled / locomotor activity [2, 12]: lower locomotor activity
total stereotypic behaviour [2, 12]: reduced stereotypic behaviour

COc1cc2c(cc1OC)[C@@H]1C[C@H](O)[C@@H](CC(C)C)CN1CC2 [(−)-α-DHTBZ, (2S,3S,11bS)-3-isobutyl-9,10-dimethoxy-1,3,4,6,7,11b-hexahydro-2H-pyrido[2,1,a]isoquinolin-2-ol]
metabolite of tetrabenazine in humans (major/minor) ([1]; listed as (−)-α-dihydrotetrabenazine): major metabolites; also recorded: main metabolites
Cmax [1, 4]: 72.9 ng/mL
AUC [1, 4]: 306 ng·h/mL
Tmax [1, 5]: 0.938 h
AUC(0-t) [1, 6]: 474 ng·h/mL
AUC(0-t) [1, 7]: 306 ng·h/mL
AUC(0-inf) [1, 8]: 352 ng·h/mL
Cmax [1, 8]: 72.9 ng/mL
half-life [1, 8]: 7.89 h
Cmaxss [1, 9]: 98.34 ng/mL
Cminss [1, 9]: 5.61 ng/mL
Ctss [1, 9]: 6.10 ng/mL
Tmaxss Mean [1, 9]: 96.96 h
Extrapolated AUC [1, 10]: 10.59%
Kel [1, 10]: 0.1 h⁻¹
total stereotypic behaviour ([2]; Study 1, 2.5 mg/kg, compared to vehicle-amphetamine group): did not lead to lower locomotor activity or reduced stereotypic behaviour
total distance travelled / locomotor activity ([2]; Study 1, 2.5 mg/kg, compared to vehicle-amphetamine group, listed as (−)-α-isomer, 2.5 mg/kg): very little, if any, reduction in induced locomotor activity
total distance travelled ([2]; Study 1, 2.5 mg/kg, compared to vehicle-vehicle group): significantly different
observed behaviour of the rats ([2]; rat, in vivo, 2.5 mg/kg): less focused on what was going on around them

COc1cc2c(cc1OC)C1CC(=O)C(CC(C)C)CN1CC2 (racemic) [Tetrabenazine, 1,3,4,6,7,11b-hexahydro-9,10-dimethoxy-3-(2-methylpropyl)-2H-benzo(a)quinolizin-2-one]
Tmax [1, 5]: 0.87 h
AUC(0-t) [1, 6]: 2.79 ng·h/mL
AUC(0-t) [1, 7]: 1.87 ng·h/mL
AUC(0-inf) [1, 8]: 2.42 ng·h/mL
Cmax [1, 8]: 0.58 ng/mL
half-life [1, 8]: 4.35 h
Cmaxss [1, 9]: 0.73 ng/mL
Cminss [1, 9]: 0.01 ng/mL
Tmaxss Mean [1, 9]: 96.89 h
Extrapolated AUC [1, 10]: 27.54%
Kel [1, 10]: 0.19 h⁻¹

α-dihydrotetrabenazine
affinity relative to the β-isomer [3]: 3- to 4 fold
